Read-outs that look alike come from different tables or passages of the source. Blank lines part the entries; values can stand above or below the compound they belong to.
Columns and labels:
[1] = tested on: naloxone-induced flush in morphine-dependent ovariectomized rats; test: Morphine-dependent rat model of hot flush (naloxone-induced flush, MD model); conditions: for changes in TST over time, effect on naloxone-induced flush: various doses; for ED50 value, abatement of naloxone-induced flush / effect on naloxone-induced flush at maximal flush / effect on naloxone-induced flush at maximal flush (dose response): 1 hour prior to naloxone; for ED50 value, abatement of naloxone-induced flush: maximal flush 15 minutes post-naloxone; for effect on naloxone-induced flush at maximal flush: 30 mg/kg intraperitoneally; for effect on naloxone-induced flush at maximal flush (dose response): 15 minutes post-naloxone; for ED50: Rattus norvegicus, read-out: ED50 value, abatement of naloxone-induced flush
Method: (§3) Dosing: All doses were prepared based on mg/kg.
(§4) Animals: Ovariectomized Sprague-Dawley rats (180-220 g) were obtained from a commercial vendor (Taconic, Germantown, N.Y.) and individually housed under 12 hours light/dark cycle in a room maintained at 25° C. Animals were provided with standard rat chow and water ad libitum.
Morphine-dependent model: Ovariectomized rats were injected once daily for 8-9 days with vehicle to minimize stress responses and then administered compound(s) on test day. On day 4 of dosing, morphine dependence was induced by sc implantation of two slow-release morphine pellets (75 mg/pellet) in the dorsal scapular region. […] Four to six days after implantation, morphine withdrawal was induced with an opioid antagonist (naloxone) that causes a transient increase in TST. […] Rats were mildly sedated with ketamine and a thermistor connected to a MacLab data acquisition system was taped to the base of the tail. Tail skin temperature was then monitored continuously for 35 minutes to establish a baseline temperature. Naloxone was subsequently administered and TST was measured for an additional 35 to 60 minutes (total recording time 70 to 95 minutes).
Statistical analysis: To analyze changes in TST induced by naloxone in morphine-dependent rats, all data were analyzed using a two factor repeated measure ANOVA for “treatment” and “time.” The model was fit to test whether there were significant differences in the responses between treatment groups. Naloxone administration is designated as time zero and data is then analyzed at 5 minute intervals. The first three readings were averaged and used as baseline TST scores. All data were analyzed as ΔTST (TST for each time point-baseline). Multiple comparisons (LSD p-values) among the treatment groups at each time point were used for the analysis. Efficacy of hot flush abatement was determined by evaluating statistical differences at the peak response time of 15 minutes post-nalbxone, when the maximal change in TST is observed. A customized SAS-excel (SAS Institute, Cary, N.C.) application was used applying a four parameter logistic model to determine ED50 values. A logistic dose transformation was performed on ΔTST. Maximum flush (ΔTST at 15 minutes post-naloxone) was used in the analysis and the minimum was locked at zero. […] Statisticians in the Biometrics Department (Wyeth Research, Collegeville, Pa.) developed a customized JMP application.

hSERT = molecular target: T1, hSERT (Homo sapiens, UniProt P31645); test: Serotonin (5-HT) uptake assay in JAR cells; type: cell-based; conditions: for hSERT % specific 5-HT uptake: at 1 μM
T1 construct: cells were stimulated with staurosporine (40 nM) to increase the expression of the 5-HT transporter; host or cells: JAR (human placental choriocarcinoma)
T1 sequence (P31645 whole entry): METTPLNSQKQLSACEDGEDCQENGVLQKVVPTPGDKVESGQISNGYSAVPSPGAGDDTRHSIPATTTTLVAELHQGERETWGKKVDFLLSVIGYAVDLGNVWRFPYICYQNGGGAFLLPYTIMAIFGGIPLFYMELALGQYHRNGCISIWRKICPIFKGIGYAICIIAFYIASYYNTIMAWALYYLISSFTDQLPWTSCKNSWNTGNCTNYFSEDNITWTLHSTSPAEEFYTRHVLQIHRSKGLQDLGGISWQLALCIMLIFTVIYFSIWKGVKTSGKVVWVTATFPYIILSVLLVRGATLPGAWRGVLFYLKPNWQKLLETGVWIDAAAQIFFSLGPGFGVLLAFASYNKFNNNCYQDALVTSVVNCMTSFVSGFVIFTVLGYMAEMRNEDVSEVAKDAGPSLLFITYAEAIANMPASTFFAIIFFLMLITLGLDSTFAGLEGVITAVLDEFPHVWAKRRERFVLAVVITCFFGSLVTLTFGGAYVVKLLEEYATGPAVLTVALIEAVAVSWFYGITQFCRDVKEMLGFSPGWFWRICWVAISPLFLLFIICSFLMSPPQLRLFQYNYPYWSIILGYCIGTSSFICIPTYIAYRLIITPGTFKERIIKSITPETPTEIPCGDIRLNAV
Method: (§1) Cells were plated at 300,000/T75 flask and cells were split twice weekly. […] Cells were plated at 250,000 cells/T75 flask and split twice weekly.
The methods for 5-HT functional reuptake using the JAR cell line were modified using a previous literature report. […] On day 2, cells were stimulated with staurosporine (40 nM) to increase the expression of the 5-HT transporter. On day 3, cells were removed from the cell incubator two hours prior to assay and maintained at room temperature to equilibrate the growth medium to ambient oxygen concentration. Subsequently, the growth medium was replaced with 200 μl of assay buffer (25 mM HEPES; 120 mM NaCl; 5 mM KCl; 2.5 mM CaCl2; 1.2 mM MgSO4; 2 mg/ml glucose (pH 7.4, 37° C.)) containing 0.2 mg/ml ascorbic acid and 10 μM pargyline. […] Data from these wells were used to define non-specific 5-HT uptake (minimum 5-HT uptake). Test compounds were prepared in DMSO (10 mM) and diluted in assay buffer according to test range (1 to 1,000 nM). Twenty-five microliters of assay buffer (maximum 5-HT uptake) or test compound were added directly to triplicate wells containing cells in 200 μl of assay buffer. The cells were incubated with the compound for 10 minutes (37° C.). […] The cells were incubated with the reaction mixture for 5 minutes at 37° C. The 5-HT uptake reaction was terminated by decanting the assay buffer. The cells were washed twice with 200 μl assay buffer (37° C.) to remove free radioligand. The plates were inverted and left to dry for 2 minutes, then reinverted and air-dried for an additional 10 minutes. Subsequently, the cells were lysed in 25 μl of 0.25 N NaOH (4° C.) then placed on a shaker table and shaken vigorously for 5 minutes. After cell lysis, 75 μl of scintillation cocktail was added to the wells, the plates were sealed with film tape and replaced on the shake table for a minimum of 10 minutes. The plates were counted in a Wallac Microbeta counter (PerkinElmer) to collect the raw cpm data.
(§2) For each experiment, a data stream of cpm values collected from the Wallac Microbeta counter was downloaded to a Microsoft Excel statistical application program. Determination of percent specific NE uptake (% SB) at 1 μM are calculated using a Microsoft Excel spread sheet applying the following formula: [% SB of NE reuptake (% SB)=[(1−(mean cpm control wells−each cpm drug well)/(mean cpm control wells−mean cpm non-specific wells))×100]. Calculations of EC50 values were made using the transformed-both-sides logistic dose response program written by Wyeth Biometrics Department.

human hNET = molecular target: T2, human hNET (Homo sapiens, UniProt P23975); test: Norepinephrine (NE) uptake assay in MDCK-Net6 cells; type: cell-based; conditions: for hNET % Specific NE uptake: at 1 μM
T2 construct: expressed in transfected cells
T2 sequence (P23975 whole entry): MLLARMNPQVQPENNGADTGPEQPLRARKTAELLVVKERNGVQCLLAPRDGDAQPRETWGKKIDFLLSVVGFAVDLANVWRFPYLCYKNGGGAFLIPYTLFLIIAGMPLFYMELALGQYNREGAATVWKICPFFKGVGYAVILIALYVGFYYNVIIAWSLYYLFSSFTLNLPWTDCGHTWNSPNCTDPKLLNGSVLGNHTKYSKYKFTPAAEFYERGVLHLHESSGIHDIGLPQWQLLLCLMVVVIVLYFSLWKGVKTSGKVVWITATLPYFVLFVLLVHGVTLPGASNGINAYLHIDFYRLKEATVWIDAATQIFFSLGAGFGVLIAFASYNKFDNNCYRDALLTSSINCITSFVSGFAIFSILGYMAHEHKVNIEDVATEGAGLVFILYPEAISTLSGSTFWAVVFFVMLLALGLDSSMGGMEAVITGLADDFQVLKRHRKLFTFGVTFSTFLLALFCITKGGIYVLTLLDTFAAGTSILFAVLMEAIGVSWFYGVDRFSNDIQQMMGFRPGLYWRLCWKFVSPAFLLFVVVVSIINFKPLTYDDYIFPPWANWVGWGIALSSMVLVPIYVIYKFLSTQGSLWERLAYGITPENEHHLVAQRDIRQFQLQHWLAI
Method: as §1
On day 1, cells were plated at 3,000 cells/well in growth medium and maintained in a cell incubator (37° C., 5% CO2). On day 2, growth medium was replaced with 200 μl of assay buffer (25 mM HEPES; 120 mM NaCl; 5 mM KCl; 2.5 mM CaCl2; 1.2 mM MgSO4; 2 mg/ml glucose (pH 7.4, 37° C.)) containing 0.2 mg/ml ascorbic acid and 10 μM pargyline. Plates containing cells with 200 μl of assay buffer were equilibrated for 10 minutes at 37° C. prior to addition of compounds. […] Data from these wells were used to define non-specific NE uptake (minimum NE uptake). Test compounds were prepared in DMSO (10 mM) and diluted in assay buffer according to test range (1 to 10,000 nM). Twenty-five microliters of assay buffer (maximum NE uptake) or test compound were added directly to triplicate wells containing cells in 200 μl of assay buffer. The cells in assay buffer with test compounds were incubated for 20 minutes at 37° C. […] The reaction was terminated by decanting the supernatant from the plate. The plates containing cells were washed twice with 200 μl assay buffer (37° C.) to remove free radioligand. The plates were then inverted, left to dry for 2 minutes, then reinverted and air dried for an additional 10 minutes. The cells were lysed in 25 μl of 0.25 N NaOH solution (4° C.), placed on a shake table and vigorously shaken for 5 minutes. After cell lysis, 75 μl of scintillation cocktail was added to each well and the plates were sealed with film tape. The plates were returned to the shake table and vigorously shaken for a minimum of 10 minutes to ensure adequate partitioning of organic and aqueous solutions. The plates were counted in a Wallac Microbeta counter (PerkinElmer) to collect the raw cpm data.
as §2

[2] = tested on: tail skin temperature of ovariectomized rats; test: OVX-induced thermoregulatory dysfunction telemetry model
Method: as §3, §4
A temperature and physical activity transmitter (PhysioTel TA10TA-F40, Data Sciences International) was implanted subcutaneously in the dorsal scapular region and the tip of the temperature probe was tunneled subcutaneously 2.5 cm beyond the base of the tail. After a 7-day recovery period, TST readings were continuously recorded for the remainder of the study. Tail skin temperature readings were collected from each animal every 5 minutes with values obtained over a 10 second sampling period. The day before test day, an average baseline TST value was calculated for each animal by averaging temperature readings recorded during the 12 hours active (dark) phase. In these studies, animals were dosed approximately 1 hour prior to the onset of dark cycle.
Evaluation of a compound's ability to restore normal lowering of TST in the telemetry model was analyzed using hourly TST values calculated for each animal by averaging the 12 temperature readings obtained every 5 minutes over that recording time. To analyze ΔTST in the telemetry model, a two factors repeated measure ANOVA was performed. The model used for analysis was ΔTST=GRP (group)+HR (hours)+GRP*HR+BASELINE. Thus, the reported least squares means are the expected mean values as if both groups had the same baseline value. Post-hoc tests of hourly GRP*HR samples are t-tests of the difference between groups for each hour. To be conservative, a result was not considered significant unless the p-value was <0.025. All analyses were performed using SAS PROC MIXED (SAS, Carey, N.C.).

[3] = [3H]5-HT uptake, JAR cells, read-out: hSERT EC50

Compound: CN1CCN(CC(c2cccc(Cl)c2)C2(O)CCCCC2)CC1 (racemic) [1-[1-(3-chlorophenyl)-2-(4-methyl-1-piperazinyl)ethyl]cyclohexanol]
changes in TST over time, effect on naloxone-induced flush ([1]; sc): dose-dependently abate the naloxone-induced flush
EC50 (hSERT; [3]): 15500 nM
EC50 (human hNET): 55 nM

Compound: CN(C)C[C@@H](c1ccc(O)cc1)C1(O)CCCCC1 (single isomer, unassigned) [R-ODV, R-enantiomer of O-desmethylvenlafaxine]
ED50 value, abatement of naloxone-induced flush ([1]; sc): 14.4+13 mg/kg

Compound: COc1ccc([C@H](CN(C)C)C2(O)CCCCC2)cc1 (single isomer, unassigned) [R-venlafaxine, R-enantiomer of venlafaxine]
ED50 value, abatement of naloxone-induced flush ([1]; sc): 8.3+3 mg/kg

Compound: CN(C)C[C@H](c1ccc(O)cc1)C1(O)CCCCC1 (single isomer, unassigned) [S-ODV, S-enantiomer of ODV]
ED50 value, abatement of naloxone-induced flush ([1]; sc): 13.3+8 mg/kg

Compound: COc1ccc([C@@H](CN(C)C)C2(O)CCCCC2)cc1 (single isomer, unassigned) [S-venlafaxine, S-enantiomer of venlafaxine]
ED50 value, abatement of naloxone-induced flush ([1]; sc): 10.9+3 mg/kg

hSERT % specific 5-HT uptake (hSERT): 72%
hNET % Specific NE uptake (human hNET): 23%
Compound: OC1(C(CN2CCN(c3cccc(Cl)c3)CC2)c2cccc(Cl)c2)CCCCC1 (stereo not drawn) [1-[1-(3-chlorophenyl)-2-[4-(3-chlorophenyl)-1-piperazinyl]ethyl]cyclohexanol]

Compound: CN1CCN(CC(c2cccc(F)c2)C2(O)CCCCC2)CC1 (stereo not drawn) [1-[1-(3-fluorophenyl)-2-(4-methyl-1-piperazinyl)ethyl]cyclohexanol]
hSERT EC50 (hSERT; [3H]5-HT uptake, JAR cells): Inactive at 1 μm
EC50 (human hNET): 240 nM

hSERT % specific 5-HT uptake (hSERT): 87%
hNET % Specific NE uptake (human hNET): 38%
Compound: COc1cccc(C(CN2CCN(c3cccc(C(F)(F)F)c3)CC2)C2(O)CCCCC2)c1 (stereo not drawn) [1-[1-(3-methoxyphenyl)-2-[4-[3-(trifluoromethyl)-phenyl]-1-piperazinyl]ethyl]cyclohexanol]

hSERT % specific 5-HT uptake (hSERT): 82%
hNET % Specific NE uptake (human hNET): 57%
Compound: COc1cccc(C(CN2CCN(c3cccc(C(F)(F)F)c3)CC2)C2(O)CCCC2)c1 (stereo not drawn) [1-[1-(3-methoxyphenyl)-2-[4-[3-(trifluoromethyl)-phenyl]-1-piperazinyl]ethyl]cyclopentanol]

Compound: COc1cccc(C(CN2CCN(Cc3ccccc3)CC2)C2(O)CCCCC2)c1 (stereo not drawn) [1-[1-(3-methoxyphenyl)-2-[4-phenylmethyl)-1-piperazinyl]ethyl]cyclohexanol]
hSERT % specific 5-HT uptake (hSERT): 49%
hNET % Specific NE uptake (human hNET): 43%

hSERT % specific 5-HT uptake (hSERT): 88%
hNET % Specific NE uptake (human hNET): 53%
Compound: OC1(C(CN2CCN(Cc3ccccc3)CC2)c2ccc(F)cc2)CCCCC1 (stereo not drawn) [1-[1-(4-fluorophenyl)-2-[4-(phenylmethyl)-1-piperazinyl]ethyl]cyclohexanol]

hSERT % specific 5-HT uptake (hSERT): 79%
hNET % Specific NE uptake (human hNET): 65%
Compound: COc1ccc(C(CN2CCN(C)CC2)C2(O)CCCCC2)cc1 (stereo not drawn) [1-[1-(4-methoxyphenyl)-2-[4-methyl-1-piperazinyl)ethyl]cyclohexanol]

Compound: COc1cccc(C(CN2CCN(c3cccc(Cl)c3)CC2)C2(O)CCCCC2)c1 (stereo not drawn) [1-[2-(3-chlorophenyl)1-piperazinyl]-1-[3-methoxyphenyl)ethyl]cyclohexanol]
hSERT % specific 5-HT uptake (hSERT): 67%
hNET % Specific NE uptake (human hNET): 64%

Compound: CN1CCN(CC(c2cccc(C(F)(F)F)c2)C2(O)CCCCC2)CC1 (stereo not drawn) [1-[2-(4-methyl-1-piperazinyl)-1-[3-(trifluoromethyl)-phenyl]ethyl]cyclohexanol]
EC50 (hSERT; [3]): 33600 nM
EC50 (human hNET): 87 nM

hSERT % specific 5-HT uptake (hSERT): 58%
hNET % Specific NE uptake (human hNET): 59%
Compound: COc1cccc(C(CN2CCN(c3cncc(Cl)n3)CC2)C2(O)CCCCC2)c1 (stereo not drawn) [1-[2-[4-(6-chloro-2-pyrazinyl)-1-piperazinyl]-1-[3-methoxyphenyl)ethyl]cyclohexanol]

Compound: OC1(C(CN2CCN(Cc3ccccc3)CC2)c2cccc(C(F)(F)F)c2)CCCCC1 (stereo not drawn) [1-[2-[4-(phenylmethyl)]-1-piperazinyl]-1-[3-(trifluoromethyl)phenyl]ethyl]cyclohexanol]
hSERT % specific 5-HT uptake (hSERT): 94%
hNET % Specific NE uptake (human hNET): 19%

Compound: CN(C)CC(c1ccc(O)cc1)C1(O)CCCCC1 (stereo not drawn) [DVS-233, O-desmethyl-venlafaxine]
changes in TST over time ([2]; 60 mg/kg sc): significantly and transiently decreases TST during the active phase

Compound: CN(C)CC(c1cccc(Cl)c1)C1(O)CCCCC1 (stereo not drawn) [WY-781]
effect on naloxone-induced flush at maximal flush [1]: abated the naloxone-induced flush

Compound: CN(C)CC(c1cccc(C(F)(F)F)c1)C1(O)CCCCC1 (stereo not drawn) [WY-867]
effect on naloxone-induced flush at maximal flush [1]: abated the naloxone-induced flush

Compound: CCC1(c2cnc[nH]2)Cc2ccccc2C1 [atipamezole]
changes in TST after naloxone, alone ([1]; 0.3 mg/kg sc, 55 minutes prior to naloxone): not significantly different from vehicle treated rats

Compound: CNCCCN1c2ccccc2CCc2ccccc21 [desipramine]
abatement of naloxone-induced flush, alone ([1]; 1 mg/kg sc, 40 minutes prior to naloxone): approximately 50%
hot flush abatement ([1]; 3 mg/kg desipramine co-administered with 10 mg/kg SRI): 100%
abatement of naloxone-induced hot flush ([1]; 10 mg/kg sc): 90.4%
abatement of naloxone-induced hot flush ([1]; 30 mg/kg sc): 96.7%
ED50 value of desipramine in the presence of fluoxetine ([1]; co-administered fluoxetine 10 mg/kg sc): did not change
abatement of naloxone-induced flush in combination with atipamezole ([1]; desipramine 1 mg/kg with atipamezole 0.3 mg/kg, sc): additive effect
abatement of naloxone-induced hot flush when SRI co-administered ([1]; desipramine 10 mg/kg with fluoxetine 10 mg/kg): significantly enhanced abatement of naloxone-induced hot flush
reduction of TST compared to vehicle treated rats ([1]; low dose, naloxone-induced hot flush): 50%
effect on naloxone-induced flush at maximal flush (dose response) ([1]; sc): dose-dependently abates the naloxone-induced flush
changes in TST over time ([2]; 10 mg/kg sc): significantly decreases TST over the entire length of the active phase

Compound: CNCCC(Oc1ccc(C(F)(F)F)cc1)c1ccccc1 (stereo not drawn) [fluoxetine]
effect on naloxone-induced flush, alone ([1]; fluoxetine 10 mg/kg sc): did not abate the naloxone-induced flush

EC50 (hSERT): 275 nM
Compound: CNCCC(Oc1ccccc1OC)c1ccccc1 (stereo not drawn) [nisoxetine, reference compound]

Compound: Fc1ccc([C@@H]2CCNC[C@H]2COc2ccc3c(c2)OCO3)cc1 [paroxetine]
ED50 ([1]; sc): 22.3 mg/kg

Compound: CCOc1ccccc1OC(c1ccccc1)C1CNCCO1 (stereo not drawn) [reboxetine]
effect on naloxone-induced flush at maximal flush (dose response) ([1]; sc): dose-dependently abates the naloxone-induced flush
changes in TST over time, effect on naloxone-induced flush ([1]; sc): dose-dependently abate the naloxone-induced flush

Compound: COc1ccc(C(CN(C)C)C2(O)CCCCC2)cc1 (stereo not drawn) [venlafaxine]
ED50 ([1]; sc): 15 mg/kg
effect on elevated naloxone-dependent hot flush induced by atipamezole ([1]; adrenergic α2 receptor antagonist atipamezole given): able to alleviate
changes in TST over time ([2]; 15 mg/kg sc): significantly and transiently decreased TST during the active phase
